Assay [1] deals with T1, multidrug resistance protein 2 (MRP2) (Homo sapiens, UniProt Q92887).
T1 construct: gene ABCC2; membrane vesicles from Sf9 cells overexpressing human MRP2
The assay can be described thus: inhibition of oxaliplatin-stimulated ([…]) vanadate-sensitive ATPase in membrane vesicles; […] reduction at […]. Format: cell-based.

The target of assay [2] is T1, multidrug resistance protein 2 (MRP2). Description: inhibition of oxaliplatin-stimulated ([…]) vanadate-sensitive ATPase in membrane vesicles; […] reduction at […], no apparent effect at […]. In kind it is cell-based.
For assay [3] the target is unchanged. The assay can be described thus: vanadate-sensitive ATPase stimulation in Sf9/MRP2 membrane vesicles, with control vesicles. In kind it is biochemical. The source says: vanadate-sensitive ATPase stimulation in Sf9/MRP2 membrane vesicles, with control vesicles on multidrug resistance protein 2 (MRP2) | oxaliplatin stimulated the vanadate-sensitive MRP2 ATPase activities in a concentration-dependent manner

Each structure is given as a SMILES string.

T1 sequence (Q92887 whole entry): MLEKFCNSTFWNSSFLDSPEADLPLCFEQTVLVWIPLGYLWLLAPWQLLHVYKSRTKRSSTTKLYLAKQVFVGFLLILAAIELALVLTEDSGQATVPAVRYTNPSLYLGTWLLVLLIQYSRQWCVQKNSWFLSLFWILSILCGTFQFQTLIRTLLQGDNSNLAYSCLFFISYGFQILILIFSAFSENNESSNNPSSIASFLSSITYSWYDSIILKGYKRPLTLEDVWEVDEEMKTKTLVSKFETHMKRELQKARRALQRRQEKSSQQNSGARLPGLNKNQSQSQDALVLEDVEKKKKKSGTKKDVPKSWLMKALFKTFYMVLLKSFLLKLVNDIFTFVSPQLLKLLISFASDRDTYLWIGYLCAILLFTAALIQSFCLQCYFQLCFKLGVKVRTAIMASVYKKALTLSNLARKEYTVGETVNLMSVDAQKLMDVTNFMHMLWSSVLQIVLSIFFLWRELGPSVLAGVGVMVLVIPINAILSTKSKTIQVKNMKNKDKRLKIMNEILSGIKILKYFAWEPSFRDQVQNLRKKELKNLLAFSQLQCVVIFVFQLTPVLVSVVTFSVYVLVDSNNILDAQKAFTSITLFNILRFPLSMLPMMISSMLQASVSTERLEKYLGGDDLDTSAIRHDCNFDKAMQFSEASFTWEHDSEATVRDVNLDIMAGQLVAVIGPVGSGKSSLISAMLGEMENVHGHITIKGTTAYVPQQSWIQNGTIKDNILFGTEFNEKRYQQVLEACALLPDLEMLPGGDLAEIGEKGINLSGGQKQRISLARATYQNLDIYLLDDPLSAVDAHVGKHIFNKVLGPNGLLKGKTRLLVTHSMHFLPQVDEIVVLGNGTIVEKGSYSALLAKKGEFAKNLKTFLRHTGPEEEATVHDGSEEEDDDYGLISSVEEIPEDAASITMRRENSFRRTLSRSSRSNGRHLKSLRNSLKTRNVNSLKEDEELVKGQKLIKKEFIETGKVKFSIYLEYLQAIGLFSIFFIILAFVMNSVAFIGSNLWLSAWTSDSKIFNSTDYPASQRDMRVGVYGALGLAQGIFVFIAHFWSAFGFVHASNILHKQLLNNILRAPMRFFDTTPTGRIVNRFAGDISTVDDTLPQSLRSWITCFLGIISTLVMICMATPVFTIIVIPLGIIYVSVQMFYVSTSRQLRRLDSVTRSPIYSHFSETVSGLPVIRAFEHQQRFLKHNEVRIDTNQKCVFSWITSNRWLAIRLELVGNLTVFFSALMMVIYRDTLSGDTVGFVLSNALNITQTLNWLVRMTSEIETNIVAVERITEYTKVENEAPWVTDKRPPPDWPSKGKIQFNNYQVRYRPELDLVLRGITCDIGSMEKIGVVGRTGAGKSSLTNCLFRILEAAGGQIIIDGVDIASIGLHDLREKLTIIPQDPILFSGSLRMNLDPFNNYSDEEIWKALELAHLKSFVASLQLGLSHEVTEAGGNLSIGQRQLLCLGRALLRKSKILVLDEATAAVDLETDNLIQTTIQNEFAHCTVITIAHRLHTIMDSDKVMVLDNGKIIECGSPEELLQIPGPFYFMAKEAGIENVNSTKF

The molecule `CCc1oc2ccccc2c1C(=O)c1cc(Br)c(O)c(Br)c1` [benzbromarone] displayed an inhibition at 100 µM in assay [1] of 90%. As for `O=c1c(O)c(-c2cc(O)c(O)c(O)c2)oc2cc(O)cc(O)c12` [myricetin], the inhibition at 60 µM in assay [2] turned out to be 40%.

In turn, `O=C1[O][Pt]2([NH][C@@H]3CCCC[C@H]3[NH]2)[O]C1=O` [oxaliplatin] came in with an EC50 in assay [3] of 8.3 ± 0.7 µM.
